Test results taken from US20130072430A1, “METHODS FOR TREATMENT OR PROPHYLAXIS OF KIDNEY OR LIVER DYSFUNCTION” (NPS PHARMACEUTICALS, INC., priority 2010, published 2013).

Tested on: Human patients with short bowel syndrome
Experiment: Example 2: liver biomarkers (albumin, gamma glutamyl transferase, total bilirubin, ALT, AST, ALP) in short bowel syndrome patients, every four weeks for 24 weeks
Format: in vivo
Settings: 0.05 mg/kg/d
Description: To further confirm the results of Example 1, a further study was conducted involving more individuals and additional diagnostic biomarkers. Human patients with short bowel syndrome were divided into two groups: a control group (43 total individuals) to receive placebo, and an experimental group (42 total individuals) to receive teduglutide at 0.05 mg/kg/day throughout the study. Patients were treated by subcutaneous injection of placebo or the appropriate dose of teduglutide. Known biomarkers of liver function were monitored every four weeks, for 24 weeks. The liver biomarkers tested included albumin, gamma glutamyl transferase, total bilirubin, ALT and AST and ALP. Before administration of placebo or teduglutide, diagnostic biomarker levels were tested to establish a baseline for each individual.
To determine the effect of GLP-2 on the levels of the diagnostic biomarkers, the average level of each biomarker was measured for the placebo and teduglutide treated groups for each visit. Furthermore, the average change from baseline was calculated using the established baseline values. For FIGS. 17-28, p-values were calculated using the t-test.
P values are provided, which were calculated for each distribution of biomarker changes for each week using the chi-squared test.

**Q.** Which results are given for `CC[C@H](C)[C@H](NC(=O)[C@H](Cc1ccccc1)NC(=O)[C@H](CC(=O)O)NC(=O)[C@H](CCCNC(=N)N)NC(=O)[C@H](C)NC(=O)[C@H](C)NC(=O)[C@H](CC(C)C)NC(=O)[C@H](CC(N)=O)NC(=O)[C@H](CC(=O)O)NC(=O)[C@H](CC(C)C)NC(=O)[C@@H](NC(=O)[C@@H](NC(=O)[C@H](CC(N)=O)NC(=O)[C@H](CCSC)NC(=O)[C@H](CCC(=O)O)NC(=O)[C@H](CC(=O)O)NC(=O)[C@H](CO)NC(=O)[C@H](Cc1ccccc1)NC(=O)[C@H](CO)NC(=O)CNC(=O)[C@H](CC(=O)O)NC(=O)CNC(=O)[C@@H](N)Cc1c[nH]cn1)[C@@H](C)O)[C@@H](C)CC)C(=O)N[C@@H](CC(N)=O)C(=O)N[C@@H](Cc1c[nH]c2ccccc12)C(=O)N[C@@H](CC(C)C)C(=O)N[C@H](C(=O)N[C@@H](CCC(N)=O)C(=O)N[C@H](C(=O)N[C@@H](CCCCN)C(=O)N[C@H](C(=O)N[C@H](C(=O)N[C@@H](CC(=O)O)C(=O)O)[C@@H](C)O)[C@@H](C)CC)[C@@H](C)O)[C@@H](C)CC` [teduglutide]?
**A.** Gamma Glutamyl Transferase Change from Baseline, Median (Week 8, n=40): −5.5 U/L; Gamma Glutamyl Transferase Observed Value, Mean (Week 8, n=40): 71.5 U/L; Gamma Glutamyl Transferase Observed Value, Median (Week 8, n=40): 46 U/L; ALT >10% decrease from Baseline, % of subjects (Week 12, m=34): (50.0%); ALT >10% decrease from Baseline, n subjects (Week 12, m=34): 17; ALT >10% increase from Baseline, % of subjects (Week 12, m=34): (20.6%); ALT >10% increase from Baseline, n subjects (Week 12, m=34): 7; ALT Within 10% of Baseline, % of subjects (Week 12, m=34): (29.4%); ALT Within 10% of Baseline, n subjects (Week 12, m=34): 10; AST >10% decrease from Baseline, % of subjects (Week 12, m=34): (61.8%); AST >10% decrease from Baseline, n subjects (Week 12, m=34): 21; AST >10% increase from Baseline, % of subjects (Week 12, m=34): (20.6%); AST >10% increase from Baseline, n subjects (Week 12, m=34): 7; AST Within 10% of Baseline, % of subjects (Week 12, m=34): (17.6%); AST Within 10% of Baseline, n subjects (Week 12, m=34): 6; Albumin >10% decrease from Baseline, % of subjects (Week 12, m=34): (5.9%); Albumin >10% decrease from Baseline, n subjects (Week 12, m=34): 2; Albumin >10% increase from Baseline, % of subjects (Week 12, m=34): (2.9%); Albumin >10% increase from Baseline, n subjects (Week 12, m=34): 1; Albumin Within 10% of Baseline, % of subjects (Week 12, m=34): (91.2%); Albumin Within 10% of Baseline, n subjects (Week 12, m=34): 31; Alkaline Phosphatase >10% decrease from Baseline, % of subjects (Week 12, m=34): (67.6%); Alkaline Phosphatase >10% decrease from Baseline, n subjects (Week 12, m=34): 23; Alkaline Phosphatase >10% increase from Baseline, % of subjects (Week 12, m=34): (14.7%); Alkaline Phosphatase >10% increase from Baseline, n subjects (Week 12, m=34): 5; Alkaline Phosphatase Within 10% of Baseline, % of subjects (Week 12, m=34): (17.6%); Alkaline Phosphatase Within 10% of Baseline, n subjects (Week 12, m=34): 6; Bilirubin >10% decrease from Baseline, % of subjects (Week 12, m=34): (44.1%); Bilirubin >10% decrease from Baseline, n subjects (Week 12, m=34): 15; Bilirubin >10% increase from Baseline, % of subjects (Week 12, m=34): (26.5%); Bilirubin >10% increase from Baseline, n subjects (Week 12, m=34): 9; Bilirubin Within 10% of Baseline, % of subjects (Week 12, m=34): (29.4%); Bilirubin Within 10% of Baseline, n subjects (Week 12, m=34): 10; ALKALINE PHOSPHATASE Change from Baseline, Median (Week 12, n=34): −23 U/L; ALT Change from Baseline, Mean (Week 12, n=34): −9.8 U/L; ALT Change from Baseline, Median (Week 12, n=34): −4 U/L; ALT Observed Value, Mean (Week 12, n=34): 33.6 U/L; ALT Observed Value, Median (Week 12, n=34): 27.5 U/L; AST Change from Baseline, Mean (Week 12, n=34): −4.2 U/L; AST Change from Baseline, Median (Week 12, n=34): −5 U/L; AST Observed Value, Mean (Week 12, n=34): 28.4 U/L; AST Observed Value, Median (Week 12, n=34): 25 U/L; Albumin Change from Baseline, Mean (Week 12, n=34): -0.9 g/L; Albumin Change from Baseline, Median (Week 12, n=34): -1 g/L; Albumin Observed Value, Mean (Week 12, n=34): 41.2 g/L; Albumin Observed Value, Median (Week 12, n=34): 41 g/L; Alkaline Phosphatase Change from Baseline, Mean (Week 12, n=34): −27.2 U/L; Alkaline Phosphatase Observed Value, Mean (Week 12, n=34): 108.6 U/L; Alkaline Phosphatase Observed Value, Median (Week 12, n=34): 98 U/L; Bilirubin Change from Baseline, Mean (Week 12, n=34): -1.54 µmol/L; Bilirubin Change from Baseline, Median (Week 12, n=34): -0.05 µmol/L; Bilirubin Observed Value, Mean (Week 12, n=34): 10.57 µmol/L; Bilirubin Observed Value, Median (Week 12, n=34): 8.35 µmol/L; Gamma Glutamyl Transferase Change from Baseline, Mean (Week 12, n=34): −8.1 U/L; Gamma Glutamyl Transferase Change from Baseline, Median (Week 12, n=34): −4 U/L; Gamma Glutamyl Transferase Observed Value, Mean (Week 12, n=34): 67.9 U/L; Gamma Glutamyl Transferase Observed Value, Median (Week 12, n=34): 51 U/L; ALT >10% decrease from Baseline, % of subjects (Week 16, m=38): (52.6%); ALT >10% decrease from Baseline, n subjects (Week 16, m=38): 20; ALT >10% increase from Baseline, % of subjects (Week 16, m=38): (21.1%); ALT >10% increase from Baseline, n subjects (Week 16, m=38): 8; ALT Within 10% of Baseline, % of subjects (Week 16, m=38): (26.3%); ALT Within 10% of Baseline, n subjects (Week 16, m=38): 10; AST >10% decrease from Baseline, % of subjects (Week 16, m=38): (50.0%); AST >10% decrease from Baseline, n subjects (Week 16, m=38): 19; AST >10% increase from Baseline, % of subjects (Week 16, m=38): (18.4%); AST >10% increase from Baseline, n subjects (Week 16, m=38): 7; AST Within 10% of Baseline, % of subjects (Week 16, m=38): (31.6%); AST Within 10% of Baseline, n subjects (Week 16, m=38): 12; Albumin >10% decrease from Baseline, % of subjects (Week 16, m=38): (5.3%); Albumin >10% decrease from Baseline, n subjects (Week 16, m=38): 2; Albumin >10% increase from Baseline, n subjects (Week 16, m=38): 0; Albumin Within 10% of Baseline, % of subjects (Week 16, m=38): (94.7%); Albumin Within 10% of Baseline, n subjects (Week 16, m=38): 36; Alkaline Phosphatase >10% decrease from Baseline, % of subjects (Week 16, m=38): (60.5%); Alkaline Phosphatase >10% decrease from Baseline, n subjects (Week 16, m=38): 23; Alkaline Phosphatase >10% increase from Baseline, % of subjects (Week 16, m=38): (21.1%); Alkaline Phosphatase >10% increase from Baseline, n subjects (Week 16, m=38): 8; Alkaline Phosphatase Within 10% of Baseline, % of subjects (Week 16, m=38): (18.4%); Alkaline Phosphatase Within 10% of Baseline, n subjects (Week 16, m=38): 7; Bilirubin >10% decrease from Baseline, % of subjects (Week 16, m=38): (63.2%); Bilirubin >10% decrease from Baseline, n subjects (Week 16, m=38): 24; Bilirubin >10% increase from Baseline, % of subjects (Week 16, m=38): (23.7%); Bilirubin >10% increase from Baseline, n subjects (Week 16, m=38): 9; Bilirubin Within 10% of Baseline, % of subjects (Week 16, m=38): (13.2%); Bilirubin Within 10% of Baseline, n subjects (Week 16, m=38): 5; ALKALINE PHOSPHATASE Change from Baseline, Median (Week 16, n=38): −22.5 U/L; ALT Change from Baseline, Mean (Week 16, n=38): −8.0 U/L; ALT Change from Baseline, Median (Week 16, n=38): −3 U/L; ALT Observed Value, Mean (Week 16, n=38): 37.5 U/L; ALT Observed Value, Median (Week 16, n=38): 26.5 U/L; AST Change from Baseline, Mean (Week 16, n=38): −3.3 U/L; AST Change from Baseline, Median (Week 16, n=38): −3 U/L; AST Observed Value, Mean (Week 16, n=38): 29.8 U/L; AST Observed Value, Median (Week 16, n=38): 26 U/L; Albumin Change from Baseline, Mean (Week 16, n=38): -0.7 g/L; Albumin Change from Baseline, Median (Week 16, n=38): -0.5 g/L; Albumin Observed Value, Mean (Week 16, n=38): 41.7 g/L; Albumin Observed Value, Median (Week 16, n=38): 42 g/L; Alkaline Phosphatase Change from Baseline, Mean (Week 16, n=38): −24.5 U/L; Alkaline Phosphatase Observed Value, Mean (Week 16, n=38): 114.2 U/L; Alkaline Phosphatase Observed Value, Median (Week 16, n=38): 102 U/L; Bilirubin Change from Baseline, Mean (Week 16, n=38): -3.41 µmol/L; Bilirubin Change from Baseline, Median (Week 16, n=38): -1.75 µmol/L; Bilirubin Observed Value, Mean (Week 16, n=38): 9.40 µmol/L; Bilirubin Observed Value, Median (Week 16, n=38): 8.1 µmol/L; Gamma Glutamyl Transferase Change from Baseline, Mean (Week 16, n=38): −7.0 U/L; Gamma Glutamyl Transferase Change from Baseline, Median (Week 16, n=38): −5.5 U/L
